± gives the expanded uncertainty stated by the source.

This data set in a line: relative permittivity at various frequencies (dimensionless); xn = mol fraction of the nth substance listed. The conditions noted are these: 303.15 K, 101 kPa, Liquid, Frequency=1 MHz, Capacitive measurement method at f=1 MHz.

Turning to `CN(C)C=O` [dimethylformamide] + NCCO, the relative permittivity (x2 = 0) was 36.55 ± 0.22.
Consider `NC=O` [formamide] + NCCO, for which the relative permittivity was determined as 106.14 ± 0.64 (x2 = 0); 97.77 ± 1.3 (x2 = 0.068); 90.12 ± 1.2 (x2 = 0.141); 81.77 ± 1.1 (x2 = 0.22); 74.02 ± 0.98 (x2 = 0.305); 66.34 ± 0.87 (x2 = 0.397). The relative permittivity is, setting by setting: (x2 = 0.497) 59.14 ± 0.77; (x2 = 0.606) 52.04 ± 0.71; (x2 = 0.725) 44.61 ± 0.66; (x2 = 0.856) 36.91 ± 0.53.
